# Reference: patent publication US8569344B2, “N-piperidinyl acetamide derivatives as calcium channel blockers” (Zalicus Pharmaceuticals Ltd., priority 2008, dated 2013)
# How the values were obtained:
# [1] = biological target: T1, human α1G T-type channels (Homo sapiens, UniProt O43497); assay: T-type calcium channel block, whole cell patch clamp in HEK cells (α1G); type: cell-based; conditions: HEK cells, patch clamp, mainly non-inactivated protocol; values above 10 μM shown as 10 μM, below 0.30 μM shown as 0.30 μM; read-out: T-type Calcium Channel Block α1G IC50
# T1 construct: expressed in transfected cells; host or cells: HEK 293
# [2] = biological target: T2, human α1H T-type channels (Homo sapiens, UniProt O95180); assay: T-type calcium channel block, whole cell patch clamp in HEK cells (α1H); type: cell-based; conditions: HEK cells, patch clamp, mainly non-inactivated protocol; values above 10 μM shown as 10 μM; read-out: T-type Calcium Channel Block α1H IC50
# T2 construct: expressed in transfected cells; host or cells: HEK 293
# T2 sequence (O95180 whole entry): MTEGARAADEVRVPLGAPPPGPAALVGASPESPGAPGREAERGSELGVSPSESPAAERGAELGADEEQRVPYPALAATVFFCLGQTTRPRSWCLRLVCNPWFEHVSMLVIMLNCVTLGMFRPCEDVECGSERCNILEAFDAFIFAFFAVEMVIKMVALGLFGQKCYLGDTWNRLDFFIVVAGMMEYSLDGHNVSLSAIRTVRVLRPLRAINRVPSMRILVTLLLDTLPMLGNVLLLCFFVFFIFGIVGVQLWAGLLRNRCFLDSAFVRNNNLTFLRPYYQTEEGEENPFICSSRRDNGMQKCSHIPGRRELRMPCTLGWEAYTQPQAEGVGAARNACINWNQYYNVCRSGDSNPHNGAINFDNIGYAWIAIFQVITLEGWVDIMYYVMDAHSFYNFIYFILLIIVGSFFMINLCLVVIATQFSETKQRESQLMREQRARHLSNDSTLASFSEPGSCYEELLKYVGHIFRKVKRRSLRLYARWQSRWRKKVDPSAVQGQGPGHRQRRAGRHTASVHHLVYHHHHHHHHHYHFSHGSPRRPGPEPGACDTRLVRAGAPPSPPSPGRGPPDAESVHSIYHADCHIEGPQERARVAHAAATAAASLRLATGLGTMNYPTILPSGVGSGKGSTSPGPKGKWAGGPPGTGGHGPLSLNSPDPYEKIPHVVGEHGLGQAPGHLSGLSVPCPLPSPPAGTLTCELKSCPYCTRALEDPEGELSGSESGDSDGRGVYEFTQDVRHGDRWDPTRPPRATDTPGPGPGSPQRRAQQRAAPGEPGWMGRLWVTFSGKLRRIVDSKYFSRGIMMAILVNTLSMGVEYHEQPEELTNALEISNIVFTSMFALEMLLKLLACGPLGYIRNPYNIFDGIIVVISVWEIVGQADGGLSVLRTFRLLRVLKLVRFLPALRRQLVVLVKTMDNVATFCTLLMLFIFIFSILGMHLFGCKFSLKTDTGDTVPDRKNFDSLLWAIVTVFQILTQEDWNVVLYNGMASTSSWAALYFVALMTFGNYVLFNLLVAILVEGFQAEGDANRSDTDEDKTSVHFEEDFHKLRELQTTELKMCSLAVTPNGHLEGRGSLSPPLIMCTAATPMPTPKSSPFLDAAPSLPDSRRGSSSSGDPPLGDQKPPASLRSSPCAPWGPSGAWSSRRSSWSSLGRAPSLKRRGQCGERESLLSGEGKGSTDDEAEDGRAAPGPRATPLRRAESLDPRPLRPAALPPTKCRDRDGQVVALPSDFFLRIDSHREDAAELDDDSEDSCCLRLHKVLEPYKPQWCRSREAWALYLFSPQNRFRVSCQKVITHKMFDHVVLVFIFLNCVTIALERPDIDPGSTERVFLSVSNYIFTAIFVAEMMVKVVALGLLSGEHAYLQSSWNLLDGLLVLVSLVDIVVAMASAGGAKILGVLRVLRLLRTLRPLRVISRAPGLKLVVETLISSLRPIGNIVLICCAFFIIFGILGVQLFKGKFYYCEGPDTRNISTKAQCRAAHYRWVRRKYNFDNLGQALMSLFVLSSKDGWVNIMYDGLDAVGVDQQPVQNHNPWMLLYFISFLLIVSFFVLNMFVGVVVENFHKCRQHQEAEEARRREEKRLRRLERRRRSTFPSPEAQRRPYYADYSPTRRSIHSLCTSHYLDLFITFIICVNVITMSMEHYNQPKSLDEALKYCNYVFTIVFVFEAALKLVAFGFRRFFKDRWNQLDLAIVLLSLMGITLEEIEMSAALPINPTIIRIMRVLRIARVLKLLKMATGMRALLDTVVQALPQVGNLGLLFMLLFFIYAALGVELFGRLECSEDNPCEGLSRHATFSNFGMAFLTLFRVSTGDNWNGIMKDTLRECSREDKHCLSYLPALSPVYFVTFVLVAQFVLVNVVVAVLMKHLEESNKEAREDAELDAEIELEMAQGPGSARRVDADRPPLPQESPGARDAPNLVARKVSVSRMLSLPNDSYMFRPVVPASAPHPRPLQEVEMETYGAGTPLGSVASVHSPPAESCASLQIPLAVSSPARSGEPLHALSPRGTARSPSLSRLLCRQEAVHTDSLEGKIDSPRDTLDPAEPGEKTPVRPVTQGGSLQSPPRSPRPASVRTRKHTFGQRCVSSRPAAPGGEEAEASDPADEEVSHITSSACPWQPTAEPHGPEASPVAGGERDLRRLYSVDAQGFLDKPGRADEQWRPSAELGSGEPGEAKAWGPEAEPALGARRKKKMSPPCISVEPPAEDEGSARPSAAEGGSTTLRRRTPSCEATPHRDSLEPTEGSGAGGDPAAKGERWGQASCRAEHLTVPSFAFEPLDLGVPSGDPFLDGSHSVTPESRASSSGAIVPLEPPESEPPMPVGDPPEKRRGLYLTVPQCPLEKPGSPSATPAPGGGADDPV
# T1 sequence (O43497 whole entry): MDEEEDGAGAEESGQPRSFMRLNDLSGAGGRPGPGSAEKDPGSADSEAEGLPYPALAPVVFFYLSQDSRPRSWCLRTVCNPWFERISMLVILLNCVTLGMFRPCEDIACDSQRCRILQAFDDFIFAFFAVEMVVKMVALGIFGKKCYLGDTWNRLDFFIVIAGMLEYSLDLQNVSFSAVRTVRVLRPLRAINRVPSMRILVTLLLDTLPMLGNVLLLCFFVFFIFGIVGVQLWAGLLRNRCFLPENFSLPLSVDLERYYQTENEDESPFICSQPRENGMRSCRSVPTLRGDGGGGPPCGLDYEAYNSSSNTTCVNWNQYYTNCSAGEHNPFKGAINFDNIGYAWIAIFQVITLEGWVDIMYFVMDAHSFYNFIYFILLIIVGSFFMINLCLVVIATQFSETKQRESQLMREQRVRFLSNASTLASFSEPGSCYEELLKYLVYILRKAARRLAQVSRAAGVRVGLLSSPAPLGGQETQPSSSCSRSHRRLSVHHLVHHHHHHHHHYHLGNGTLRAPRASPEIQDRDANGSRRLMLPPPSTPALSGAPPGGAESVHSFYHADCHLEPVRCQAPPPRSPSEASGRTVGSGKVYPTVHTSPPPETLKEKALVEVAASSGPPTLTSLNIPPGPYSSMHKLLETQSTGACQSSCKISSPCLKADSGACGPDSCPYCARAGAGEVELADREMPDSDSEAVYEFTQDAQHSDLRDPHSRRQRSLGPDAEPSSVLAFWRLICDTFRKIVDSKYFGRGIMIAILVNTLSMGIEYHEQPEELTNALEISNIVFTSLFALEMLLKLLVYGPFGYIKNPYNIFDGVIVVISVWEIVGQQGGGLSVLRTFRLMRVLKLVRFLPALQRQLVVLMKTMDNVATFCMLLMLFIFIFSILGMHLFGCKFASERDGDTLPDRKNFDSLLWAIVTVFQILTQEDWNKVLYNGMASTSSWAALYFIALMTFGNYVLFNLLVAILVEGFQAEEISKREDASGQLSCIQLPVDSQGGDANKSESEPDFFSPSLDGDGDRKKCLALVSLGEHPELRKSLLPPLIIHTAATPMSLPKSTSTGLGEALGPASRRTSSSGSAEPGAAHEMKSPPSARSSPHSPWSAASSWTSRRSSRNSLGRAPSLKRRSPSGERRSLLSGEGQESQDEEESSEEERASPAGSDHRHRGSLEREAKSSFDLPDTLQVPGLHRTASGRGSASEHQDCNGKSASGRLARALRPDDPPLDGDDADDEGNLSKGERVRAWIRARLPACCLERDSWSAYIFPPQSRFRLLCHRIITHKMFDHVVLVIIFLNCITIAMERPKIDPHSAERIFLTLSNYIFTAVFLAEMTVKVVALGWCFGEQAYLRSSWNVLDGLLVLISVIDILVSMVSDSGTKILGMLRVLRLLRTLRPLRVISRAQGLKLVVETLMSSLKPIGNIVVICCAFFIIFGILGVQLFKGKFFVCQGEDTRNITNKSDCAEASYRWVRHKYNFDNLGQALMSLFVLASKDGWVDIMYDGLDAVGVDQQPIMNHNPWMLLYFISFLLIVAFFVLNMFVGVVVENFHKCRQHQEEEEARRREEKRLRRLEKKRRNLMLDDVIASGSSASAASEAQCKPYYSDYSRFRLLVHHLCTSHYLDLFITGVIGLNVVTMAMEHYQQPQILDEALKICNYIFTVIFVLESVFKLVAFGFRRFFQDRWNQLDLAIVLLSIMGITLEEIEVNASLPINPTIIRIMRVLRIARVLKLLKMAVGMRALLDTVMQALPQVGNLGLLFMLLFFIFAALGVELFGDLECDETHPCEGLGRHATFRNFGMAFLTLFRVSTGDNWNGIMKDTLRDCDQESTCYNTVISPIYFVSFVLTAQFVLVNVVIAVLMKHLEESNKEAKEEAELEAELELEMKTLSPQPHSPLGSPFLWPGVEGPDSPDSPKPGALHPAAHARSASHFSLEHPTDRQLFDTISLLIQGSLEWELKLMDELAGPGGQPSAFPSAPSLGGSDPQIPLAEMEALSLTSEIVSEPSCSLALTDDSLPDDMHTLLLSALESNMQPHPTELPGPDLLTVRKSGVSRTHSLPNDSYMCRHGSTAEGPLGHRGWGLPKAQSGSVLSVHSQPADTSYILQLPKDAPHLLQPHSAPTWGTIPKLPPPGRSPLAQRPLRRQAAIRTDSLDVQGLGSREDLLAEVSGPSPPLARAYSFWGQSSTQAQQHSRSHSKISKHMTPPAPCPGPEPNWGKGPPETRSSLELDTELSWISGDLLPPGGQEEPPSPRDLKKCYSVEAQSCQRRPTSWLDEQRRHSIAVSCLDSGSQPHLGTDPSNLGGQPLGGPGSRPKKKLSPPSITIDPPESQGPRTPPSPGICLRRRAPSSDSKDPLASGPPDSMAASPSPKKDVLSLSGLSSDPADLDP
IC50 [1] [nM],IC50 [2] [nM],SMILES
< 300,90,"O=C(NCC1CCN(CCNC(=O)C2(C(F)(F)F)CCC2)CC1)c1cc(F)cc(C(F)(F)F)c1 [Compound 435, 3-fluoro-5-(trifluoromethyl)-N-((1-(2-(1-(trifluoromethyl)cyclobutanecarboxamido)ethyl)piperidin-4-yl)methyl)benzamide]"
< 300,400,"CC(C)S(=O)(=O)NCCN1CCC(CNC(=O)c2cc(C(F)(F)F)cc(C(F)(F)F)c2)CC1 [Compound 20, N-((1-(2-(1-methylethylsulfonamido)ethyl)piperidin-4-yl)methyl)-3,5-bis(trifluoromethyl)benzamide]"
< 300,160,"O=C(NCC1CCN(CCNS(=O)(=O)C(F)(F)F)CC1)c1cc(Br)cc(Br)c1 [Compound 388, 3,5-dibromo-N-((1-(2-(trifluoromethylsulfonamido)ethyl)piperidin-4-yl)methyl)benzamide]"
1310,810,"CN(CCN1CCC(CNC(=O)c2cc(F)cc(C(F)(F)F)c2)CC1)C(=O)C1(C)CC1 [Compound 518, N-((1-(2-(N,1-dimethylcyclopropanecarboxamido)ethyl)piperidin-4-yl)methyl)-3-fluoro-5-(trifluoromethyl)benzamide]"
530,810,"CCC1CCCCN1CC(=O)N1CCC(CNC(=O)c2cc(C(F)(F)F)cc(C(F)(F)F)c2)CC1 (stereo not drawn) [Compound 243, N-((1-(2-(2-ethylpiperidin-1-yl)acetyl)piperidin-4-yl)methyl)-3,5-bis(trifluoromethyl)benzamide]"
2040,1380,"Cc1cc(C)cc(C(=O)NCC2CCN(CCNS(=O)(=O)C3CC3)CC2)c1 [Compound 233, N-((1-(2-(cyclopropanesulfonamido)ethyl)piperidin-4-yl)methyl)-3,5-dimethylbenzamide]"
> 10000,> 10000,"CC(C)(C)C(=O)NCCN1CCC(CNC(=O)/C=C/c2cc(F)cc(F)c2)CC1 [Compound 297, (E)-3-(3,5-difluorophenyl)-N-((1-(2-pivalamidoethyl)piperidin-4-yl)methyl)acrylamide]"
< 300,480,"CC1CCCCC1NCC(=O)N1CCC(CNC(=O)c2cc(C(F)(F)F)cc(C(F)(F)F)c2)CC1 (stereo not drawn) [Compound 248, N-((1-(2-(2-methylcyclohexylamino)acetyl)piperidin-4-yl)methyl)-3,5-bis(trifluoromethyl)benzamide]"
1720,1300,"CCCNC(=O)CN1CCC(CNC(=O)c2cc(F)cc(C(F)(F)F)c2)CC1 [Compound 351, 3-fluoro-N-((1-(2-oxo-2-(propylamino)ethyl)piperidin-4-yl)methyl)-5-(trifluoromethyl)benzamide]"
310,310,"CN(CCN1CCC(CNC(=O)c2cc(F)cc(C(F)(F)F)c2)CC1)C(=O)C(C)(C)C [Compound 515, 3-fluoro-N-((1-(2-(N-methylpivalamido)ethyl)piperidin-4-yl)methyl)-5-(trifluoromethyl)benzamide]"
2360,770,"CN(CCN1CCC(CNC(=O)c2cc(F)cc(C(F)(F)F)c2)CC1)C(=O)NC1CCCCC1 [Compound 525, N-((1-(2-(3-cyclohexyl-1-methylureido)ethyl)piperidin-4-yl)methyl)-3-fluoro-5-(trifluoromethyl) benzamide]"
1640,760,"Cc1cc(C)cc(C(=O)NCC2CCN(CCNC(=O)OC(C)(C)C)CC2)c1 [Compound 42, tert-butyl 2-(4-((3,5-dimethylbenzamido)methyl)piperidin-1-yl)ethylcarbamate]"
380,490,"O=C(NCC1CCN(CC2(NS(=O)(=O)C3CC3)CC2)CC1)c1cc(C(F)(F)F)cc(C(F)(F)F)c1 [Compound 359, N-((1-((1-(cyclopropanesulfonamido)cyclopropyl)methyl)piperidin-4-yl)methyl)-3,5-bis(trifluoromethyl)benzamide]"
2810,3250,"CC(C)(C)C(=O)NCCN1CCC(CNC(=O)/C=C/c2cc(Cl)cc(Cl)c2)CC1 [Compound 300, (E)-3-(3,5-dichlorophenyl)-N-((1-(2-pivalamidoethyl)piperidin-4-yl)methyl)acrylamide]"
3310,2810,"CC(C)NC(=O)CN1CCC(CNC(=O)c2cc(F)cc(Cl)c2)CC1 [Compound 443, 3-chloro-5-fluoro-N-((1-(2-(isopropyl-amino)-2-oxoethyl)piperidin-4-yl)methyl)benzamide]"
> 10000,> 10000,"COc1ccc(C(=O)NCC2CCN(CCNS(=O)(=O)C3CC3)CC2)cc1OC [Compound 324, N-((1-(2-(cyclopropanesulfonamido)ethyl)piperidin-4-yl)methyl)-3,4-dimethoxybenzamide]"
> 10000,> 10000,"CC(C)NC(=O)CN1CCC(CNC(=O)c2cccc(C(F)(F)F)c2)CC1 [Compound 440, N-((1-(2-(isopropylamino)-2-oxoethyl)piperidin-4-yl)methyl)-3-(trifluoromethyl)benzamide]"
< 300,230,"CC(C)(C)C(O)CN1CCC(CC(=O)Nc2cc(F)cc(C(F)(F)F)c2)CC1 (stereo not drawn) [Compound 169, N-(3-fluoro-5-(trifluoromethyl)phenyl)-2-(1-(2-hydroxy-3,3-dimethylbutyl)piperidin-4-yl)acetamide]"
520,770,"CC(C)COC(=O)NC(CN1CCC(CC(=O)NCc2cc(Cl)cc(Cl)c2)CC1)C(C)(C)C (stereo not drawn) [Compound 225, isobutyl 1-(4-(2-(3,5-dichlorobenzyl-amino)-2-oxoethyl)piperidin-1-yl)-3,3-dimethylbutan-2-ylcarbamate]"
5570,> 10000,"O=C(NCC1CCN(C(=O)CN2CCCC(F)(F)C2)CC1)c1cc(C(F)(F)F)cc(C(F)(F)F)c1 [Compound 256, N-((1-(2-(3,3-difluoropiperidin-1-yl)acetyl)piperidin-4-yl)methyl)-3,5-bis(trifluoromethyl)benzamide]"
> 10000,> 10000,"O=C(NCC1CCN(CCNS(=O)(=O)C(F)(F)F)CC1)c1ccc(OC(F)(F)F)cc1 [Compound 389, 4-(trifluoromethoxy)-N-((1-(2-(trifluoromethylsulfonamido)ethyl)piperidin-4-yl)methyl)benzamide]"
370,140,"COCC(C)(C)NC(=O)C(C)N1CCC(CNC(=O)c2cc(F)cc(Cl)c2)CC1 (stereo not drawn) [Compound 551, 3-chloro-5-fluoro-N-((1-(1-(1-methoxy-2-methylpropan-2-ylamino)-1-oxopropan-2-yl)piperidin-4-yl)methyl)benzamide]"
1050,> 10000,"CC(C)(C)OC(=O)NCCN1CCC(CNC(=O)c2ccc(Oc3ccccc3)cc2)CC1 [Compound 57, tert-buyl 2-(4-((4-phenoxybenzamido)methyl)piperidin-1-yl)ethylcarbamate]"

SMILES,IC50 [1] [nM],IC50 [2] [nM]
"CC(C)(C)ONC(=O)CN1CCC(CNC(=O)c2cc(C(F)(F)F)cc(C(F)(F)F)c2)CC1 [Compound 560, N-((1-(2-(tert-butoxyamino)-2-oxoethyl)piperidin-4-yl)methyl)-3,5-bis(trifluoromethyl)benzamide]",470,590
